Consider four compounds from patent US7189749B2, “Substituted phenoxyacetic acids” (The Institutes for Pharmaceutical Discovery LLC, priority 1999, dated 2007).

For assay [1], the target named is human aldose reductase (hALR2) (Homo sapiens, UniProt P15121). Briefly: inhibition of human aldose reductase (hALR2), methods similar to Butera et al. Type of assay: biochemical. Conditions: concentration required to inhibit human aldose reductase activity by 50%. How it is done:
Representative compounds of the invention were tested for their potency, selectivity and efficacy as inhibitors of human aldose reductase.

For assay [2], the target named is T1, human aldehyde reductase (hALR1) (Homo sapiens, UniProt P14550).
T1 sequence (P14550 1-325): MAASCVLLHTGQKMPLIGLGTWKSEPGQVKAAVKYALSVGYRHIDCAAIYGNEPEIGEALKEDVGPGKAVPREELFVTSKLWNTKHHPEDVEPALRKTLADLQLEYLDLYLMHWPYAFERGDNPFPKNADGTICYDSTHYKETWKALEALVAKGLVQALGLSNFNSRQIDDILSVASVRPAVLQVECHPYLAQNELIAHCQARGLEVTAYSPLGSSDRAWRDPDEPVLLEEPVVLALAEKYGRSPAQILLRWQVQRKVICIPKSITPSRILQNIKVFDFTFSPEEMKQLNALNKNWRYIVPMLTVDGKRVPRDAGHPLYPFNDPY
Briefly: inhibition of human aldehyde reductase (hALR1), methods essentially of Ishii et al. Particulars: for IC50: concentration required to inhibit human aldehyde reductase activity by 50%; for hALR1/hALR2: ratio of hALR1 IC50 to hALR2 IC50, selectivity. Type of assay: biochemical. How it is done:
In a second assay, a number of the same compounds were tested for their ability to inhibit aldehyde reductase (hAR1), a structurally related enzyme. […] Using this assay, the concentrations required to inhibit human aldehyde reductase activity by 50% (ICSO) were determined.
Since high potency of test compounds as inhibitors of aldose reductase is desirable, low hALR2 IC50 values are sought. On the other hand, high potency of test compounds as inhibitors of aldehyde reductase is undesirable, and high hALR1 IC50s values are sought. Accordingly, the hALR1/hALR2 ratio is used to determine the selectivity of the test compounds.

Each structure is given as a SMILES string.

As usually defined, the IC50 is the concentration that inhibits the measured activity by half. Lower therefore signals higher potency. Take `O=C(O)COc1cc(F)ccc1C(=S)NCc1nc2c(F)c(F)cc(F)c2s1` [Example 55, {5-Fluoro-2-[(4,5,7-trifluoro-benzothiazol-2-ylmethyl)-thiocarbamoyl]-phenoxy}-acetic acid]: 15 nM corresponded to half-maximal inhibition in assay [1] (IC50). For the same compound, in assay [2], half-maximal inhibition (IC50) required 17 µM and the hALR1/hALR2 is listed as 1,100.
On the same counts, the results for `O=C(O)COc1cc(F)c(-c2ccccc2)cc1C(=O)NCc1cccc([N+](=O)[O-])c1` [Example 50, [5-(3-Nitro-benzylcarbamoyl)-2-fluoro-biphenyl-4-yloxy]-acetic acid] are 7 nM, 14 µM and 2,000.
Consider `O=C(O)COc1cc(Cl)ccc1C(=O)NCc1ccc(Cl)c(Cl)c1` [Example 14, [5-Chloro-2-(3,4-dichloro-benzylcarbamoyl)-phenoxy]-acetic acid], for which, in assay [1], half-maximal inhibition (IC50) was put at 34 nM. For the same compound, in assay [2], the IC50 came out at 18 µM and the hALR1/hALR2 was 530.
For the compound `O=C(O)COc1ccc(Cl)cc1C(=O)NCc1ccc(Br)cc1F` [Example 17, [2-(4-Bromo-2-fluoro-benzylcarbamoyl)-4-chloro-phenoxy]-acetic acid], the values for the IC50 in assay [1] and in assay [2] were 46 nM and 18 µM, respectively. Moreover, in assay [2], the hALR1/hALR2 was 390.
